In patent US12691076B2, “Methods and compositions related to extracellular vesicles” (priority 2020, dated 2026):
Where two headings read alike, the source gives them in different places.

Experiment: Plasma and tissue concentrations of efavirenz after tail vein injection
Type: in vivo, CD-1 mice
Conditions: mice, 5 mg/kg tail vein; for concentration at […]: 0.25 h
Method: The efavirenz-loaded apical AVT-EVs were subsequently injected via tail vein into CD-1 mice at a dose of 5 mg/kg and compared to a control injection of 5 mg/kg of conventional efavirenz (dissolved with DMSO). Plasma and tissue concentrations were determined by LC-MS/MS.

[1] = CD-1, mouse, liver, intravenous, LLOQ 35 ng/g, read-out: Efavirenz concentration, Liver
[2] = CD-1, mouse, lung, intravenous, LLOQ 35 ng/g, read-out: Efavirenz concentration, Lungs
[3] = CD-1, mouse, plasma, intravenous, read-out: Efavirenz concentration, Plasma

concentration at 0.083 h [1]: 7590 ng/g | concentration at […] [1]: 5420 ng/g | concentration at 0.5 h [1]: 5230 ng/g | concentration at 1 h [1]: 176 ng/g | concentration at 2 h [1]: 135 ng/g | concentration at 3 h (CD-1, mouse, liver, intravenous, 3 h, LLOQ 35 ng/g, read-out: Efavirenz concentration, Liver): 136 ng/g | concentration at 4 h (CD-1, mouse, liver, intravenous, 4 h, LLOQ 35 ng/g, read-out: Efavirenz concentration, Liver): 137 ng/g | concentration at 6 h (CD-1, mouse, liver, intravenous, 6 h, LLOQ 35 ng/g, read-out: Efavirenz concentration, Liver): 115 ng/g | concentration at 0.083 h [2]: 2140 ng/g | concentration at […] [2]: 802 ng/g | concentration at 0.5 h [2]: 830 ng/g | concentration at 1 h [2]: 273 ng/g | concentration at 0.083 h [3]: 4100 ng/mL | concentration at […] [3]: 2820 ng/mL | concentration at 0.5 h [3]: 1620 ng/mL | concentration at 1 h [3]: 1560 ng/mL | concentration at 2 h [3]: 724 ng/mL | concentration at 3 h (CD-1, mouse, plasma, intravenous, 3 h, read-out: Efavirenz concentration, Plasma): 396 ng/mL | concentration at 4 h (CD-1, mouse, plasma, intravenous, 4 h, read-out: Efavirenz concentration, Plasma): 103 ng/mL | concentration at 6 h (CD-1, mouse, plasma, intravenous, 6 h, read-out: Efavirenz concentration, Plasma): 64.4 ng/mL | concentration at 8 h (CD-1, mouse, plasma, intravenous, 8 h): 33.1 ng/mL | AUC(0-t) (CD-1, mouse, plasma, intravenous, read-out: area under the plasma-time concentration curve (AUC0-8h) of efavirenz): 4520 ng·h/mL | AUC0-8h for efavirenz in the lungs: 0.95 µg·h/g | lung:liver tissue AUC0-8h ratio: 0.19 | overall exposure of the liver relative to the lungs: approximately 5 times | Efavirenz concentration, Lungs (3 h, LLOQ 35 ng/g): <LLOQ | Efavirenz concentration, Lungs (4 h, LLOQ 35 ng/g): <LLOQ | Efavirenz concentration, Lungs (6 h, LLOQ 35 ng/g): <LLOQ | Efavirenz concentration, Liver (8 h, LLOQ 35 ng/g): <LLOQ | Efavirenz concentration, Lungs (8 h, LLOQ 35 ng/g): <LLOQ
SMILES: O=C1Nc2ccc(Cl)cc2[C@@](C#CC2CC2)(C(F)(F)F)O1 [Efavirenz in DMSO, efavirenz]
